Results from patent US20060084172A1, “Method for producing stem cells with increased developmental potential” (Julius-Maximilians-Unversitat Wurzburg, priority 2001, published 2006).

Legend:
Oct4 gene = experiment: Oct4-gene specific RT-PCR after incubation of neural stem cells; format: cell-based, mouse; settings: 2-day incubation of neural stem cells (NSC #417, NSC #125); 150-250 nanomolar Trichostatin A and/or 300-600 nanomolar 5-aza-2′ deoxycytidine; HPRT normalization
Protocol: For investigating whether the incubation of adult neural stem cells of Example 1 with deacetylase inhibitors (e.g. Trichostatin A) and/or nucleotide analogs (e.g. 5-aza-2′ deoxycytidine), which prevent a methylation, influences the gene expression, the stem cells were incubated with one of these substances or a mixture of these substances. This was performed in Neurobasal medium, B27 supplement, 20-40 ng EGF, 20-40 ng FGF-2, 150-250 nanomolar Trichostatin A and/or 300-600 nanomolar 5-aza-2′ deoxycytidine for 2 or 4 days. Subsequently to the incubation, RNA was isolated from the cells, and cDNA was produced by means of the enzyme reverse transcriptase. By using gene-specific primers, the gene expression of the Oct4 gene was investigated. The Oct4 gene serves as an example of a development-specific regulator gene. It is only active in very early development stages (zygote, morula, blastula). Later, the expression is restricted to germ cells. The Oct4 gene is not transcribed in the adult organism outside the germ cells, thus also not in somatic stem cells. The Oct4 gene is thus only active in cells, which have a development potential larger than that of the somatic stem cells [see Pesce M, Anastassiedies K, Scholer H R (1999) Oct4: lessons of totipotency from embryonic stem cells. Cells Tissues Organs 165:144-152]. […] Under these conditions, no Oct4 expression was detected anymore. […]

mouse blastocysts = experiment: Injection of treated neural stem cells into blastocysts, Y chromosome-specific PCR of tissues of chimeric animals; format: in vivo; settings: treated neural stem cells injected into blastocysts, animals examined at 4 weeks, FIG. 4b versus untreated FIG. 4a
Excerpt: In order to determine the plasticity of the employed somatic stem cell types, neural and hematopoietic stem cells of the Examples 1 and 2 were isolated and injected into mouse blastocysts (see FIG. 2). From the blastocyst develops the complete embryo and later the adult animal. By this method, the injected stem cells are subjected to all inductive processes, which take place during the development of the embryo. If the used hematopoietic or neural stem cells should have the capability to differentiate to all or many tissues or cell types of the adult animal, then descendants of the injected stem cells should be detectable for the developed animal in several different or all tissues and organs. If this detection is positive and the donor cells carry foreign, tissue-specific markers and perform foreign, tissue-specific functions, then the treatment of the somatic stem cells has led to an increased plasticity.
In order to investigate the development potential of somatic stem cells treated according to Example 4, neural stem cells of Example 4 (from male animals) were washed and injected (20-40 pieces) into blastocysts, which were isolated from superovulated females after object pairing. […] Male donor cells, which originate from the injected neural stem cells (NSC), were detected by a Y chromosome-specific PCR reaction (YMT primer). […]

How did the “Oct4 gene expression (RT-PCR)” value (Oct4 gene) turn out when CC(/C=C/C(=O)NO)=C\[C@@H](C)C(=O)c1ccc(N(C)C)cc1 [Trichostatin A] was run?
Its value is “reactivates the Oct4 gene”.

What about the “distribution spectrum of donor cells in tissues” value (mouse blastocysts) of the same compound?
Its value is “substantially wider distribution spectrum”.
